≈ marks a conversion by molar mass, not a printed value. Like-named read-outs stand apart in the source and are kept apart here.
How the values were obtained:
Type in all cases: cell-based
[1] = tested on: murine cytomegalovirus (MCMV) binding to NIH3T3 fibroblasts; assay: Cytomegalovirus binding assay
Protocol: In a cytomegalovirus binding assay, tritiated murine cytomegalovirus (MCMV) was incubated with NIH3T3 fibroblasts in a 24-well plate fixed (0.4% paraformaldehyde) for 2 hours at 37° C. (rocking) in the presence of media alone or media containing 1-1000 μg/mL suramin. Cells were then washed extensively and lysed with 1% SDS and triton X-100. Lysates were quantified for radioactivity (cpm) in a scintillation counter.

Neisseria gonorrhoeae = assay: Gonococcal growth inhibition (multiplication assay)
Protocol: Gonococcal growth inhibition assays were performed by the method of Anderson R. A., et al., J. Androl., 21: 862-875; 2000. Briefly, Neisseria gonorrhea from local uncomplicated cases of gonorrhea were isolated (verified by Gram stain, oxidase reactivity and sugar fermentation). The titer of log-phase cultures were adjusted by dilution in GC broth to 0.5 McFarland standard (approximately 10^8 colony forming units per ml). This was diluted 1:10 with broth that contained no additions (control), and each of serial 1:10 dilutions of test agent, ranging from 1 mg/ml to 1.0 μg/ml. The cultures were incubated at 37° C. for four hours. Four serial 1:10 dilutions were made in GC broth, and a portion of each dilution was inoculated onto GC agar plates. The plates were incubated overnight, and resultant gonococcal colonies were counted under bright-field microscopy. Data for each concentration of suramin were expressed as the number of colony-forming units (CFU) per ml of the original log-phase bacterial suspension.

sperm = assay: Sander Cramer sperm immobilization test
Protocol: The Sander Cramer test was used to determine the effect on sperm immobilization as described in Sander F V and Cramer S D., Hum. Fertil. 6: 134-153 (1941). This test may be used to evaluate the sperm-immobilizing effectiveness of contraceptive compositions. Serial dilutions of each test composition were added to semen adjusted to a designated number, e.g., 60 million of motile sperm per milliliter at room temperature (i.e., 25° C.). The end point is the greatest dilution at which all of the sperm are immobilized within 20 seconds. Results are expressed as minimum effective concentration in milligrams per milliliter.

HIV-1 IIIB = assay: Viral entry inhibition, cell-free HIV-1 IIIB, CD4/coreceptor expressing HeLa cells; details: Human immunodeficiency virus 1, IIIB

Compound: Cc1ccc(C(=O)Nc2ccc(S(=O)(=O)O)c3cc(S(=O)(=O)O)cc(S(=O)(=O)O)c23)cc1NC(=O)c1cccc(NC(=O)Nc2cccc(C(=O)Nc3cc(C(=O)Nc4ccc(S(=O)(=O)O)c5cc(S(=O)(=O)O)cc(S(=O)(=O)O)c45)ccc3C)c2)c1 [Suramin, 8,8′-(carbonylbis(imino-3,1-phenylenecarbonylimino(4-methyl-3,1-phenylene)carbonylimino))bis-1,3,5-naphthalene trisulfonic acid]
- Potency, CMV Binding [1]: Moderate
- IC50 ([1]; NIH3T3, read-out: IC50 CMV binding assay): 50 µg/mL (≈ 38.5 µM)
- Potency, Gonococcus (GC) Multiplication (Neisseria gonorrhoeae): Moderate
- inhibition of GC growth (multiplication assay) (Neisseria gonorrhoeae; 1 mg/mL): completely inhibited GC growth
- dose-response of GC growth (Neisseria gonorrhoeae; 1-1000 μg/mL): no clear dose-response
- inhibition at 1000 µg/mL (Neisseria gonorrhoeae; Neisseria gonorrhoeae, 1 mg/mL, read-out: inhibition of GC multiplication): 100%
- sperm-immobilizing activity (sperm; 20 mg/mL): no significant sperm-immobilizing activity
- sperm motility in Sander Cramer test (sperm; 10 and 5 mg/mL): all spermatozoa from samples were motile
- Potency, Motility (Sander Cramer, Motility, CASA) (sperm; highest concentration = 25 mg/mL): None
- IC50 (HIV-1 IIIB; HeLa, 2 h-incubation, read-out: IC50 against IIIB, viral entry assay): 18.5 µg/mL (≈ 14.3 µM)
- IC50 (HIV-1 IIIB; CD4/coreceptor expressing HeLa cells, incubation 2 hours, read-out: IC50, Cell-Free Strains IIIB): 18.5 µg/mL (≈ 14.3 µM)

Source: patent US8552064B2, “Suramin and derivatives thereof as topical microbicide and contraceptive” (Eastern Virginia Medical School, priority 2005, dated 2013)
